Experimental findings from ChEMBL document CHEMBL4266046, “β-Triketone-Monoterpene Hybrids from the Flowers of the Australian Tree Corymbia intermedia” (J Nat Prod, 2018) are described below.

For data set [1], the system named is HEK293. The data set is described as follows: (§1) Cytotoxicity against HEK293 cells assessed as inhibition of cell proliferation at 100 uM relative to control. The class given is cell-based. The conditions noted are these: human, hek293, 100 µM.
Data set [2] relates to Plasmodium falciparum. The data set is described as follows: Antiplasmodial activity against synchronized ring stage of chloroquine-sensitive Plasmodium falciparum 3D7 infected in human erythrocytes assessed as inhibition of parasite replication at higher concentration after 72 hrs by DAPI staining based fluorescence imaging analysis relative to control. The class given is functional.

Data set [3] has as its system Plasmodium falciparum. The data set is described as follows: Antiplasmodial activity against synchronized ring stage of chloroquine-sensitive Plasmodium falciparum 3D7 infected in human erythrocytes assessed as inhibition of parasite replication after 72 hrs by DAPI staining based fluorescence imaging analysis. The class given is functional, organism-based. Particulars: 3D7, 72 h.

The nature of data set [4]: as §1. The conditions noted are these: human, HEK293 cells. Format: cell-based.

Molecules are shown by their SMILES.

As a reminder, the IC50 is the point on the concentration scale where inhibition reaches its midpoint. Broadly, the inhibition is the drop in the measured response relative to a control, in per cent.

With `CC1(C)C(=O)C2=C(O[C@@]3(C)[C@H](C[C@@H]4C[C@H]3C4(C)C)[C@H]2c2ccccc2)C(C)(C)C1=O`, the Activity entry in data set [1] was “Non-Toxic”. The “inhibition (INH)” value in data set [2] is listed as 100%. The IC50 in data set [3] is 20.8 µM.
As to `CC1(C)C(=O)C2=C(O[C@]3(CC[C@H]4C[C@@H]3C4(C)C)C[C@@H]2c2ccccc2)C(C)(C)C1=O`, the inhibition at 100 µM in data set [4] was determined as 64%. Further, the IC50 in data set [3] is 12.5 µM.
As for `CC1(C)C(=O)C2=C(O[C@]3(CC[C@H]4C[C@@H]3C4(C)C)C[C@H]2c2ccccc2)C(C)(C)C1=O`, the “inhibition (INH)” value in data set [2] turned out to be 100%. The half-inhibitory concentration (IC50) in data set [3] was 9.9 µM.
